# Laboratory results published in patent publication US20080274543A1, “Neuronal Cell Propagation Using Rotating Wall Vessel” (THE ADMINISTRATORS OF THE TULANE EDUCATIONAL FUND, priority 2007, published 2008).
# Where “and” joins values, the source holds several entries; their conditions need not be identical. Equal values may be shown once.
# Tested on: SY cells
# Experiment: TUNEL apoptosis assay, TG-stimulated SY cells in 3-D versus 2-D culture
# Format: cell-based, human
# Description: SY cells (1×10^6) cultured in 2-D or 3-D were incubated with or without 10 nM TG. The 2-D and 3-D cells were harvested using trypsin, washed in PBS, and fixed for 5-10 min in 2% PFA. Prior to fixation, the 3-D-cultured cells treated inside of the RWV were separated from the beads using a 40-μm cell strainer (Becton Dickinson). The fixed cells were permeabilized in PBS/FSG/Triton and blocked with 10% NGS. Apoptosis was evaluated using the Apoptag TUNEL assay kit (Chemicon). The results were analyzed using a Leica TCS SP2 confocal microscope as described above. Cell morphology consistent with apoptosis including cell shrinkage, nuclear condensation and membrane blebbing were assessed along with the fluorescein staining for TUNEL. The number of apoptotic cells counted was divided by the total (500 minimum) number of cells counted. This protocol was also followed for evaluation of apoptosis in PC12 cells. An increased drug tolerance, 30-nM TG was used in the PC12 assay. 3-D-cultured PC12 samples were stimulated for 5 days after removal from the RWV to multi-well dishes.
# Thapsigargin (TG) is known to induce apoptosis through the passive release of Ca^2+ from ER stores. These events lead to subsequent increases in cytosolic Ca^2+, stressing both the ER and the mitochondria (Elyaman et al., 2002; Nechushtan A, Smith C L, Lamensdorf I, Yoon S H, Youle R J. Bax and Bak coalesce into novel mitochondria-associated clusters during apoptosis. The Journal of cell biology, 2001; 153: 1265-76; Nguyen H N, Wang C, Perry D C. Depletion of intracellular calcium stores is toxic to SH-SY5Y neuronal cells. Brain Res, 2002; 924: 159-66; Scorrano et al., 2003; Zong W X, Li C, Hatzivassiliou G, Lindsten T, Yu Q C, Yuan J, Thompson C B. Bax and Bak can localize to the endoplasmic reticulum to initiate apoptosis. The Journal of cell biology, 2003; 162: 59-69). In order to determine inherent differences in apoptosis between the 3-D and 2-D cultured cells, the terminal uridine deoxynucleotidyl transferase dUTP nick end labeling (TUNEL) assay was used. […]
smiles,measurement,setting,value
"C/C=C(/C)C(=O)O[C@H]1C(C)=C2[C@H]([C@@H]1OC(=O)CCCCCCC)[C@@](C)(OC(C)=O)C[C@H](OC(=O)CCC)[C@@]1(O)[C@H]2OC(=O)[C@@]1(C)O [TG, Thapsigargin]",thapsigargin-induced apoptosis in 3D cultured SH-SY5Y cells versus monolayer,3D versus ML culture,notably enhanced
same,degree of apoptosis in TG-stimulated versus control cells at 24 h,"24 h, TG 10 nM",noticeable difference in the degree of apoptosis occurring in stimulated versus control cells was found only in the 3-D(RWV) cells
same,"increase in TUNEL-positive (apoptotic) SY cells, 3-D versus 2-D culture, when treated with TG","TG 10 nM, 5 days, 3-D+TG versus 2-D+TG",4 to 7 fold and 4- to 7 fold
